Measured values published in US7396837B2, “Antitumoral analogs of lamellarins” (Pharma Mar, S.A.U., priority 2002, dated 2008).

Columns and labels:
Assay type in all cases: cell-based
HT-29 = test: SRB colorimetric cell growth inhibition assay, HT-29
How it was run: (§1)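 Continuous-exposure format, human tumour lines. SRB colour reaction quantifies growth/viability. Triplicate wells → mean ± SD → GI, TGI, LC.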

LNCaP = test: SRB colorimetric cell growth inhibition assay, LNCaP
How it was run: as §1

A-549 = test: SRB colorimetric cell growth inhibition assay, A-549
How it was run: as §1

LoVo-Dox = test: SRB colorimetric cell growth inhibition assay, LoVo-Dox (MDR)
How it was run: as §1

LoVo = test: SRB colorimetric cell growth inhibition assay, LoVo
How it was run: as §1

PANC-1 = test: SRB colorimetric cell growth inhibition assay, PANC-1
How it was run: as §1

SK-BR-3 = test: SRB colorimetric cell growth inhibition assay, SK-BR-3
How it was run: as §1

IGROV = test: SRB colorimetric cell growth inhibition assay, IGROV
How it was run: as §1

K-562 = test: SRB colorimetric cell growth inhibition assay, K-562
How it was run: as §1

IGROV-ET = test: SRB colorimetric cell growth inhibition assay, IGROV-ET (ET-743 resistant)
How it was run: as §1

HeLa = test: SRB colorimetric cell growth inhibition assay, HeLa; conditions: Homo sapiens, HeLa
How it was run: as §1

SK-MEL-28 = test: SRB colorimetric cell growth inhibition assay, SK-MEL-28
How it was run: as §1

DU-145 = test: SRB colorimetric cell growth inhibition assay, DU-145
How it was run: as §1

HeLa-APL = test: SRB colorimetric cell growth inhibition assay, HeLa-APL (aplidine resistant); conditions: Homo sapiens
How it was run: as §1

COc1cc(-c2c3c4cc(OC)c(OC(=O)[C@@H](N)C(C)C)cc4oc(=O)c3n3ccc4c(OC(=O)[C@@H](N)C(C)C)c(OC)c(OC)cc4c23)ccc1OC(=O)[C@@H](N)C(C)C [Compound 190]
GI50 (HT-29; HT-29, GI=growth inhibition, read-out: GI50 HT-29): 2.99 µM | CC50 (HT-29; Homo sapiens, HT-29, read-out: LC50 HT-29, HT-29, cell killing (cytotoxic effect)): 10.7 µM | IC (TGI) (HT-29; Homo sapiens, HT-29, total growth inhibition (cytostatic effect), read-out: TGI HT-29): 10.7 µM | GI50 (LNCaP; LN-caP, GI=growth inhibition, read-out: GI50 LN-caP): 0.0486 µM | TGI LN-caP (LNCaP; LN-caP, total growth inhibition (cytostatic effect)): 2.97E−07 Molar | CC50 (LNCaP; human): 1.97 µM | GI50 (A-549; A-549, GI=growth inhibition, read-out: GI50 A-549): 0.167 µM | IC (TGI) (A-549; Homo sapiens, A549, A-549, total growth inhibition (cytostatic effect), read-out: TGI A-549): 1.66 µM | CC50 (A-549; Homo sapiens, A549, read-out: LC50 A-549, A-549, cell killing (cytotoxic effect)): 10.7 µM | IC (TGI) (LoVo-Dox; Homo sapiens, LOVO-DOX, total growth inhibition (cytostatic effect), read-out: TGI LOVO-DOX): 1.37 µM | CC50 (LoVo-Dox; Homo sapiens, read-out: LC50 LOVO-DOX, LOVO-DOX, cell killing (cytotoxic effect)): 7.68 µM | GI50 (LoVo-Dox; LOVO-DOX, GI=growth inhibition, read-out: GI50 LOVO-DOX): 0.31 µM | CC50 (LoVo; Homo sapiens, LoVo, read-out: LC50 LOVO, LOVO, cell killing (cytotoxic effect)): 5.46 µM | IC (TGI) (LoVo; Homo sapiens, LoVo, total growth inhibition (cytostatic effect), read-out: TGI LOVO): 1.2 µM | GI50 (LoVo; LOVO, GI=growth inhibition, read-out: GI50 LOVO): 0.285 µM | IC (TGI) (PANC-1; Homo sapiens, PANC-1, PANC-1, total growth inhibition (cytostatic effect), read-out: TGI PANC-1): 3.5 µM | CC50 (PANC-1; Homo sapiens, PANC-1, read-out: LC50 PANC-1, PANC-1, cell killing (cytotoxic effect)): 10.7 µM | GI50 (PANC-1; PANC-1, GI=growth inhibition, read-out: GI50 PANC-1): 0.376 µM | GI50 (SK-BR-3; SK-BR-3, GI=growth inhibition, read-out: GI50 SK-BR-3): 0.0922 µM | TGI SK-BR-3 (SK-BR-3; SK-BR-3, total growth inhibition (cytostatic effect)): 3.83E−07 Molar | CC50 (SK-BR-3; human): 2.63 µM | GI50 (IGROV; IGROV, GI=growth inhibition, read-out: GI50 IGROV): 0.134 µM | TGI IGROV (IGROV; IGROV, total growth inhibition (cytostatic effect)): 8.95E−07 Molar | CC50 (IGROV; human): 8.32 µM | IC (TGI) (K-562; Homo sapiens, K562, K-562, total growth inhibition (cytostatic effect), read-out: TGI K-562): 7.12 µM | CC50 (K-562; Homo sapiens, K562, read-out: LC50 K-562, K-562, cell killing (cytotoxic effect)): 10.7 µM | GI50 (K-562; K-562, GI=growth inhibition, read-out: GI50 K-562): 0.0718 µM | GI50 (IGROV-ET; IGROV-ET, GI=growth inhibition, read-out: GI50 IGROV-ET): 0.102 µM | TGI IGROV-ET (IGROV-ET; IGROV-ET, total growth inhibition (cytostatic effect)): 1.20E−06 Molar | CC50 (IGROV-ET; human): 6.42 µM | CC50 (HeLa; read-out: LC50 HELA, HELA, cell killing (cytotoxic effect)): 3.93 µM | IC (TGI) (HeLa; read-out: TGI HELA): 1.31 µM | GI50 (HeLa; GI=growth inhibition, read-out: GI50 HELA): 0.0833 µM | IC (TGI) (SK-MEL-28; Homo sapiens, SK-MEL-28, MEL-28, total growth inhibition (cytostatic effect), read-out: TGI MEL-28): 10.7 µM | GI50 (SK-MEL-28; MEL-28, GI=growth inhibition, read-out: GI50 MEL-28): 9.15 µM | CC50 (SK-MEL-28; human): 10.7 µM | GI50 (DU-145; DU-145, GI=growth inhibition, read-out: GI50 DU-145): 0.0575 µM | TGI DU-145 (DU-145; DU-145, total growth inhibition (cytostatic effect)): 2.63E−07 Molar | CC50 (DU-145; human): 10.7 µM | GI50 (HeLa-APL; read-out: GI50 HELA-APL): 0.0899 µM | CC50 (HeLa-APL; read-out: LC50 HELA-APL, HELA-APL, cell killing (cytotoxic effect)): 5.2 µM | IC (TGI) (HeLa-APL; read-out: TGI HELA-APL): 1.72 µM
